In patent publication US12246022B2, “Compositions and methods for treating, preventing or reversing age associated inflammation and disorders” (BROWN UNIVERSITY, priority 2019, dated 2025):
Like-named read-outs stand apart in the source and are kept apart here.

Columns and labels:
[1] = tested on: mouse LINE-1; assay: Mouse LINE-1 retrotransposition assay (dual luciferase pYX016 reporter, HeLa cells); type: cell-based
Protocol: Elvucitabine was obtained by custom synthesis. […] HeLa cervical cancer cells were cultivated at 37° C. in a humidified 5% CO2 incubator in Dulbecco's Modified Eagle's Medium (DMEM)-high glucose, with 4500 mg/L glucose, L-glutamine, sodium pyruvate and sodium bicarbonate (Sigma), supplemented with 10% of heat inactivated fetal bovine serum (Thermo Fisher). Assays were performed as described in Xie et al., 2011^151 with several modifications. The reporter assay was performed in 96 well white Optical bottom plates. 6000 HeLa cells were seeded in each well 24 hours prior transfection and compound treatment. All compounds were resuspended in DMSO. Stock solution concentrations varied from 50 mM to 1.25 mM depending of the solubility of the compound. Serial dilutions (1:3) were prepared in DMSO. Ten different concentrations of each compound were tested in triplicate. Medium containing different concentrations of the compounds were prepared by adding 2 μL of the compound dilution to 1 mL of the culture medium. The final concentration of DMSO in the medium was 0.2%. FuGENE® HD transfection reagent (Promega) was used to transfect the plasmid pYX016 into the cells. The transfection mix was prepared in OpiMEM (Thermo Fisher) using a reagent to DNA ratio of 3.5:1 according to manufacturer's instructions. Culture medium was removed from the cells and discarded. The transfection mix (5 μL) was mixed with the compound containing medium (100 μL/well) and this was added onto the cells of each well. Cells were incubated for 48H at 37° C./5% CO2. Luciferase reporter activity was quantified with the Dual-Luciferase® Reporter Assay System (Promega) according to manufacturer's instructions for multiwell plates with the following modification: Cells were lysed directly on the multiwell plate with 30 μL of the passive lysis buffer (PLB) for 20 min at room temperature, with gentle shaking to ensure complete cell lysis (instead of 20 μL of PLB for 15 min). Firefly and Renilla luciferase signals were measured using a SpectraMax i3x Multi-Mode Microplate Reader. […] Relative L1 activity was calculated as Firefly/Renilla *10,000. […] The experiment was performed twice, independently.

[2] = tested on: human LINE-1; assay: Human LINE-1 retrotransposition assay, related experiments with islatravir (pYX017, HeLa cells, Tables 12 and 13); type: cell-based; settings: Homo sapiens
Protocol: In related experiments, islatravir and other compounds were tested for inhibition of retrotransposition activity of human LINE-1 in HeLa cells according to the following procedure.
HeLa cervical cancer cells were cultivated at 37° C. in a humidified 5% CO2 incubator in Dulbecco's Modified Eagle's Medium (DMEM)—high glucose, with 4500 mg/L glucose, L-glutamine, sodium pyruvate and sodium bicarbonate (Sigma), supplemented with 10% of heat inactivated fetal bovine serum (Thermo Fisher).
Assays were performed using reporter plasmid pYX017 as described (Xie, et al., 2011) with several modifications. The reporter assay was performed in 96-well white optical bottom plates. HeLa cells were seeded in wells 24 h prior to transfection and compound treatment so that cells were approximately 30% confluent on the day of transfection. Different cell plating densities were tested and a density of 2×10^3 cells was determined to be optimal.
Compounds were resuspended in DMSO. Serial dilutions (1:3) were prepared in DMSO. Medium containing different concentrations of the compounds were prepared by adding 2 μl of the compound dilution to 1 ml of the culture medium. The final concentration of DMSO in the medium was 0.2%.
FuGENE® HD transfection reagent (Promega, E2311, Lot 382574 and Lot 397842) was used to transfect the plasmids into the cells. The transfection reagent: DNA mixture was prepared in OpiMEM (Thermo Fisher) according to manufacturer's instructions. Different ratios of transfection reagent to DNA were tested and a ratio of 3:1 was determined to be optimal. Culture medium was removed from the cells and discarded. The transfection reagent: DNA mixture (5 μl) was mixed with the compound containing medium (100 μl/well) and this was added onto the cells of each well. Cells were incubated at 37° C./5% CO2 for different incubation time. A 72 h incubation time was determined to be optimal.
Luciferase reporter activity was quantified with the Dual-Luciferase® Reporter Assay System (Promega) according to manufacturer's instructions for multiwell plates except that cells were lysed directly on the multiwell plate with 30 μl of the passive lysis buffer (PLB) for 20 min at room temperature, with gentle shaking to ensure complete cell lysis.
Firefly and Renilla luciferase signals were measured using a SpectraMax i3x Multi-Mode Microplate Reader. Integration times of 100 ms and 10 ms were used to measure the Firefly and Renilla signals respectively. Relative L1 activity is calculated as Firefly/Renilla *1000 or Firefly/Renilla *10,000. Dose response inhibition data were fit to a four parameter logistic equation using non-linear regression (using Graphpad Prism 8), to determine IC50 values for each inhibitor.

[3] = Comparative studies: intracellular drug concentration relative to LINE-1 IC50 and huCSF/Plasma ratio; settings: Table 13 Comparative Studies
[4] = pYX016, 48 H post-transfection, read-out: Mouse L1 activity inhibition IC50, Exp. 1
[5] = pYX016, 48 H post-transfection, read-out: Mouse L1 activity inhibition IC50, Exp. 2
[6] = pYX016, 48 H, n = 2, read-out: Mouse L1 activity inhibition IC50, Average
[7] = HeLa, Table 13 Comparative Studies, read-out: Human Line-1 IC50

SMILES | IC50 [1, 4] [nM] | IC50 [1, 5] [nM] | IC50 [1, 6] [nM] | IC50 [2, 7] [nM] | Human Line-1 Intracellular drug conc. (% of IC-50 conc.) [3] [%] | IC50 ([2]; HeLa cells, pYX017, 72 h, n = 3, read-out: Human LINE-1 IC50, Average) [nM] | IC50 ([2]; HeLa cells, pYX017, 72 h, read-out: Human LINE-1 IC50, Exp.1) [nM] | IC50 ([2]; HeLa cells, pYX017, 72 h, read-out: Human LINE-1 IC50, Exp.2) [nM]
Nc1nc(=O)n([C@@H]2CS[C@H](CO)O2)cc1F [Emtricitabine] | 640 | 451 | 546 | 1340 | 67 |  |  | 
Nc1ccn([C@@H]2CS[C@H](CO)O2)c(=O)n1 [Lamivudine] | 958 | 780 | 869 | 640 | 9 | 800 | 900 | 700
